# According to paper PMC3985129 (Journal of laboratory automation, 2013):
# Several values for one entry are separate records, joined by “and”; a condition that tells them apart may be missing. Identical values can stand only once.
# Columns and labels:
# Cytotoxicity assay = details: human, MMTV-βLa HeLa cells, EC50 (95% confidence interval), Cytotoxicity assay (ATP content)
# [1] = target: green coffee bean α-galactosidase A (GLA) (Coffea arabica, UniProt Q42656); assay: α-galactosidase; assay type: biochemical
# [2] = HP D300 - with DMSO backfill, 384-well
# [3] = HP D300 - without DMSO backfill, 384-well
# Chain of green coffee bean α-galactosidase A (GLA) (Q42656 16-378): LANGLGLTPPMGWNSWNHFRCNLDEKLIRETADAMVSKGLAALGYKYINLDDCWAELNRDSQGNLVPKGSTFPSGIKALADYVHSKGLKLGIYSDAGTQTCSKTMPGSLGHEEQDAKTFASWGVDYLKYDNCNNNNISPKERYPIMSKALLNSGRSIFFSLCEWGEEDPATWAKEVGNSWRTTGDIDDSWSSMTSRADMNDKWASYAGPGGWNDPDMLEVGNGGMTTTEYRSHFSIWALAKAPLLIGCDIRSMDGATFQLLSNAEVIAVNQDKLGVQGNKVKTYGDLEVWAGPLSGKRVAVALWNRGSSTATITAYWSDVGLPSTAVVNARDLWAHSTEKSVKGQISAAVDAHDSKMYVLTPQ
Structure (SMILES),EC50 at 72 hr (Cytotoxicity assay; [2]) [µM],EC50 at 72 hr (Cytotoxicity assay; [3]) [µM],EC50 at 72 hr (Cytotoxicity assay; Pin tool – 1536-well) [µM],"EC50 ([1]; EC50 (95% confidence interval), α-galactosidase enzyme assay)","fold more potent in our assay than previously reported ([1]; versus previously published value, ref [4]) [fold]"
COc1cccc2c1C(=O)c1c(O)c3c(c(O)c1C2=O)C[C@@](O)(C(C)=O)C[C@@H]3O[C@H]1C[C@H](N)[C@H](O)[C@H](C)O1 [Daunorubicin],0.189,0.252,0.38,,
"CC/C(=C(\c1ccccc1)c1ccc(OCCN(C)C)cc1)c1ccccc1 [Tamoxifen, tamoxifen]",8.77,9,32.1,,
"Cc1c(OCC(F)(F)F)ccnc1C[S+]([O-])c1nc2ccccc2[nH]1 (centres unmarked) [Lansoprazole, lansoprazole]",,,,12 µM and 11.5 µM and 8.95 µM,
"CC(=O)[O][Hg][c]1ccccc1 [PMA, phenylmercuric acetate]",,,,,> 50
